Patent publication US20250281496A1, “METHODS OF TREATING NEUROPATHY USING FORETINIB AND COMPOSITIONS THEREOF” (INDIANA UNIVERSITY RESEARCH AND TECHNOLOGY CORPORATION, priority 2022, published 2025)

Experiments:
[1] = tested on: Embryonic rat sensory neurons; assay: Myelination in cultured embryonic rat sensory neurons (MBP-positive area); assay type: cell-based; conditions: primary wt neuronal/SC co-cultures, 10 days since induction of myelination, n=4, p<0.0001
Description: A) Embryonic rat sensory neurons were harvested, dissociated and cultured. Myelination was induced in presence of Foretinib (right image) or vehicle only (left image). 10 days since induction of myelination the cultures were fixed and immunosatined for myelin basic protein (MBP) (green), bIII-tubulin (red) and DAPI (blue). Scale bar: […]. B) Quantitative representation of the area proportion occupied by MBP-positive myelin segments (as in A) n=4, p<0.0001.

[2] = tested on: sympathetic and sensory neurons; conditions: in vitro, previously shown (ref 17); cited from earlier work
[3] = tested on: experimental diabetic neuropathy; assay: Three-dimensional assessment of cutaneous innervation (volumetric nerve fiber density) in STZ-diabetic mice; assay type: in vivo; conditions: 30 mg/kg oral daily; 5 weeks post-STZ; non-treated 44.9%, vehicle 37.8%
Description: (§1) In total, 20 mice were injected with 100 mg/kg bodyweight of streptozotocin (STZ, […], Sigma Aldrich) in 0.1M citrate buffer (pH 4.5) on two consecutive days respectively, to induce diabetes type 1^27. Prior to the first injection and in weekly intervals thereafter, all animals were weighted and underwent tail prick blood sugar measurements using a clinical grade monitoring system (Contour One, Ascensia Diabetes Care, Mississauga, Ontario) as previously described. Mice were considered diabetic when blood glucose was at least 15 mmol/L (270 mg/dl). Prior to diabetes induction the mice were block randomized into experimental groups (n=10 Foretinib treatment, n=5 vehicle treatment, n=5 non-treated diabetic control). An additional 5 non-diabetic animals served as a healthy control. Foretinib treatments started 1-week post-diabetes induction. Foretinib was prepared fresh daily by dissolving 6 mg Foretinib in 1 ml of 1% (Hydroxypropyl)-methyl cellulose (09963, Sigma Aldrich) and 0.2% sodium dodecyl sulfate ([…], Sigma Aldrich) in sterile H2O. […] Cutaneous nerve fibers were semiautomatically traced using batch processing with consistent fluorescence intensity thresholds across the entire data set. Volumetric nerve fiber density was determined as total nerve fiber volume per skin tissue volume for an 830×830×200 μm region of interest.

[4] = tested on: experimental diabetic neuropathy; assay: Lower extremity nerve histomorphology (sciatic and sural nerve) in STZ-diabetic mice; assay type: in vivo; conditions: 30 mg/kg oral daily, five weeks post-diabetes induction
Description: as §1, with “A custom-trained deep learning model based on the open-source software AxonDeepSeg^29 determined axon diameter and myelin sheath thickness and g-ratio for entire” for “Cutaneous”, “cross sections.” for “fibers were semiautomatically traced using batch processing with consistent fluorescence intensity thresholds across the entire data set. Volumetric nerve fiber density was determined as total nerve fiber volume per skin tissue volume for an 830×830×200 μm region of interest.”

[5] = tested on: TDP-43 mutant Zebra fish larvae; assay: TDP-43 mutant Zebra fish larvae ALS model; assay type: in vivo; design: motor neuron axon length and NMJ formation: dose or concentration left out as unconfirmed

COc1cc2c(Oc3ccc(NC(=O)C4(C(=O)Nc5ccc(F)cc5)CC4)cc3F)ccnc2cc1OCCCN1CCOCC1 [Foretinib, N1-[3-Fluoro-4-({6-methoxy-7-[3-(morpholin-4-yl)propoxy]quinolin-4-yl}oxy)phenyl]-N′1-(4-fluorophenyl)cyclopropane-1,1-dicarboxamide]
axonal myelination (area proportion of MBP-positive myelin segments) [1]: significantly improved axonal myelination | axonal die-back under trophic deprivation [2]: prevents axonal die-back mechanisms | cutaneous nerve fiber density as % of non-diabetic reference [3]: 67.3% | peripheral nerve histomorphology (axon diameter, myelin sheath thickness, g-ratio) [4]: did not affect peripheral nerve histomorphology | motor neuron axon length and NMJ formation ([5]; 2 days old larvae exposed to Foretinib): longer and forms more NMJ | swimming deficits ([5]; TDP-43 mutant larvae, data not shown): rescuing its swimming deficits
